Consider eleven compounds from patent publication US5607926A, “Cephalosporin antibiotics” (Microcide Pharmaceuticals, Inc., priority 1995, dated 1997).

Holding throughout (assay type): cell-based
Assay [1] relates to S. aureus Col8A (Meth^S)(lac^-). Description: In vitro antibacterial evaluation, MIC by agar dilution, S. aureus Col8A. Conditions: Staphylococcus aureus. Put shortly: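 Log-phase isolates were spot-inoculated at about 10^4 cfu onto Mueller-Hinton agar carrying duplicate two-fold compound levels, 128 μg/mL to ≤0.25 μg/mL, following NCCLS (1991). Plates were read after 16-20 h at 35°-36° C. The lowest growth-inhibiting concentration gave the MIC (μg/ml).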
(In general: Agar dilution tests growth on a series of plates holding different concentrations.)

Assay [2] has as its system E. faecalis ATCC 29212. Description: In vitro antibacterial evaluation, MIC by agar dilution, E. faecalis ATCC 29212. The note with it: Enterococcus faecalis, ATCC29212; E. faecalis ATCC 29212; read-out: MIC. The procedure, abridged:
(§1)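 NCCLS agar dilution; Mueller-Hinton agar, 2-fold series 128 to ≤0.25 μg/mL, duplicates. Inoculum ~10^4 cfu/spot from 4-6 h log-phase broth culture. 35°-36° C, 16-20 h; MIC = lowest concentration with no growth.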

Assay [3] has as its system S. aureus ATCC 25923. Description: In vitro antibacterial evaluation, MIC by agar dilution, S. aureus ATCC 25923. Conditions: Staphylococcus aureus, ATCC25923. As to the method:
The compounds of the invention were evaluated against several β-lactamresistant bacteria strains by determining the minimum inhibitory concentration (MIC, μg/ml) of each compound with respect to each strain. The MIC, the lowest concentration of antibiotic which inhibits growth of the test organism, was determined by the agar dilution method.
To determine the MIC for bacterial isolates, the test compound was incorporated in a series of two-fold dilutions into liquified Mueller-Hinton agar. Upon solidification, a number of different bacterial strains were spot inoculated with a replicating device onto the agar surface. […] The procedures used in these studies have been standardized by the National Committee for Clinical Laboratory Standards (NCCLS), as per the NCCLS publication entitled METHODS FOR DILUTION ANTIMICROBIAL SUSCEPTIBILITY TESTS (1991), which is incorporated herein by reference.
Aliquots of antimicrobial agents were prepared in phosphate buffered saline (PBS) at pH 7.2. Tween 20 or DMSO was used as a solubilizing vehicle as needed. Standard methods of vortexing, sonicating and gentle heat were used to facilitate solubilizing the test agent. Typically, the concentration of the stock solution was 10× that of the highest drug concentration tested. A 1.28 mg/mL stock solution was used with a subsequent highest working concentration of 128 μg/mL. Serial two-fold dilutions were done through ≤0.25 μg/mL. Each drug level was tested in duplicate. Two-fold drug dilutions were done in sterile 50 mL tubes with a final drug volume of 5 mL. Upon the addition of 45 mL of molten agar, a 10-fold dilution resulted. Two, 25 mL. plates were then poured into 15×150 mm square Petri plates with grids and allowed to harden.
A control plate with a reference drug, either cefotaxime, vancomycin or imipenem, was used as the positive growth control. Stock concentrations of reference antibiotics were prepared and frozen at -80° C. Upon preparation, the control plates were sealed and stored in the refrigerator for up to 1 week prior to use; however, imipenem control plates had to be prepared just prior to use. All test plates were used within 24 hours of preparation.
Satisfactory results were obtained where the inoculum contained about 10^4 colony forming units (cfu) ±0.5 logs. Starting with pure cultures of the test isolates on agar plates, a few isolated colonies were transferred to a tube of nutrient broth and allowed to grow 4-6 hours at 35°-36° C. to reach log-phase growth. Dropwise addition of the broth culture to PBS was done to match a 0.5 McFarland turbidity standard equal to 10^8 cfu/mL. This was further diluted ten-fold in PBS to reach a working inoculum concentration of 10^7 cfu/mL. When 1 μL of the working inoculum was applied to the agar surface a concentration of about 10^4 cfu per spot was obtained.
Disposable sterile 1 μL loops were used to inoculate test plates, with each isolate in a designated grid on the agar plate. An alternate method of inoculation involved the use of a replica plater, a device with 48 steel pins allowing the simultaneous inoculation of multiple isolates. After the spots had dried, the plates were incubated at 35°-36° C. for 16-20 hours. Endpoints were assessed as the minimum inhibitory concentration (MIC) of antimicrobial agent.

For assay [4], the system named is E. coli ATCC 25922. Description: In vitro antibacterial evaluation, MIC by agar dilution, E. coli ATCC 25922. Conditions: Escherichia coli, ATCC25922, read-out: MIC. Put shortly: as §1
The subject of assay [5] is E. faecium ATCC 35667. Description: In vitro antibacterial evaluation, MIC by agar dilution, E. faecium ATCC 35667. The note with it: Enterococcus faecium, ATCC35667, read-out: MIC. The procedure, abridged:
as §1

Assay [6] relates to S. epidermidis ATCC 31432. Description: In vitro antibacterial evaluation, MIC by agar dilution, S. epidermidis ATCC 31432. Conditions: Staphylococcus epidermidis, ATCC31432. Put shortly: as §1
Assay [7] has as its system S. haemolyticus (Meth^R). Description: In vitro antibacterial evaluation, MIC by agar dilution, S. haemolyticus. Conditions: Staphylococcus haemolyticus, read-out: MIC. Put shortly:
as §1

Assay [8] deals with P. aeruginosa ATCC 27853. Description: In vitro antibacterial evaluation, MIC by agar dilution, P. aeruginosa ATCC 27853. The note with it: Pseudomonas aeruginosa, ATCC27853, read-out: MIC. The procedure, abridged:
as §1

For assay [9], the system named is S. aureus 76 (Meth^R)(lac^+). Description: In vitro antibacterial evaluation, MIC by agar dilution, S. aureus 76. Conditions: Staphylococcus aureus, read-out: MIC. Put shortly: as §1
Setting [10] is: S. aureus ATCC 25923, read-out: MIC.
[11] abbreviates: S. epidermidis ATCC 31432, read-out: MIC.

By MIC is commonly meant the least concentration at which growth counts as inhibited.

Molecules are shown by their SMILES. Values after ≈ are worked out from the molar mass of the structure shown. Where a name gives a salt, the structure may show the parent alone. Read-outs that look alike come from different tables or passages of the source.

With `N#Cc1ccc(SC2=C(C(=O)O)N3C(=O)[C@@H](NC(=O)Cc4ccccc4)[C@H]3SC2)c([N+](=O)[O-])c1` [Cmpd 49, (7R)-7-[(Phenylacetyl)amino]-3-(4-cyano-2-nitrophenylthio)-3-cephem-4-carboxylic acid], the MIC in assay [1] is 0.5 µg/mL (≈ 1.01 µM); in assay [2] it was 4 µg/mL (≈ 8.06 µM); in assay [3] (setting [10]), less than 0.25 µg/mL; in assay [4] it was more than 32 µg/mL; in assay [5], 4 µg/mL (≈ 8.06 µM); in [6] (setting [11]), less than 0.25 µg/mL. For the same compound, the values for the minimum inhibitory concentration (MIC) in assay [7], in assay [8] and in [9] were 32 µg/mL (≈ 64.4 µM), more than 32 µg/mL and 16 µg/mL (≈ 32.2 µM), respectively.
Turning to `O=Cc1ccccc1SC1=C(C(=O)O)N2C(=O)[C@@H](NC(=O)Cc3ccccc3)[C@H]2SC1` [Cmpd 50, (7R)-7-[(Phenylacetyl)amino]-3-(2-formylphenylthio)-3-cephem-4-carboxylic acid], the MIC is less than 0.25 µg/mL in assay [1]; 4 µg/mL (≈ 8.8 µM) in [2]; less than 0.25 µg/mL in [3]; 8 µg/mL (≈ 17.6 µM) in assay [4]; 4 µg/mL (≈ 8.8 µM) in [5]; less than 0.25 µg/mL in [6]. For the same compound, the MIC in assay [7] was 8 µg/mL (≈ 17.6 µM); in assay [8], more than 32 µg/mL; in assay [9], 8 µg/mL (≈ 17.6 µM).
`O=C(Cc1ccccc1)N[C@@H]1C(=O)N2C(C(=O)O)=C(Sc3cccc4c3CCCC4)CS[C@H]12` [Cmpd 56, (7R)-7-[(Phenylacetyl)amino]-3-(5,6,7,8-tetrahydronaphthalen-1-ylthio)-3-cephem-4-carboxylic acid]: the MIC in [1] was less than 0.25 µg/mL; in assay [2], 2 µg/mL (≈ 4.16 µM); in [3], less than 0.25 µg/mL; in assay [4], more than 32 µg/mL; in [5], 4 µg/mL (≈ 8.32 µM); in assay [6] it was less than 0.25 µg/mL. For the same compound, the MIC in assay [7] was 16 µg/mL (≈ 33.3 µM); in assay [8], more than 32 µg/mL; in assay [9] it was 4 µg/mL (≈ 8.32 µM).
Regarding `O=C(Cc1ccccc1)N[C@@H]1C(=O)N2C(C(=O)O)=C(Sc3ccc4ccccc4c3Br)CS[C@H]12` [Cmpd 57, (7R)-7-[(Phenylacetyl)amino]-3-(1-bromo-naphthalen-2-ylthio)-3-cephem-4-carboxylic acid], the MIC in [1] is less than 0.25 µg/mL; in [2] it was 2 µg/mL (≈ 3.6 µM); in assay [3], less than 0.25 µg/mL; in assay [4], 32 µg/mL (≈ 57.6 µM); in [5], 1 µg/mL (≈ 1.8 µM); in [6], less than 0.25 µg/mL. The MIC in [7] amounted to 4 µg/mL (≈ 7.2 µM); in [8], 32 µg/mL (≈ 57.6 µM); in [9] it was 2 µg/mL (≈ 3.6 µM).
With `O=C(Cc1ccccc1)N[C@@H]1C(=O)N2C(C(=O)O)=C(Sc3ccc(CSC4=NCCN4)cc3I)CS[C@H]12` [Cmpd 59, (7R)-7-[(Phenylacetyl)amino]-3-(4-(2-imidazolin-2-ylthiomethyl)-2-iodophenylthio)-3-cephem-4-carboxylic acid], the minimal inhibitory concentration (MIC) in [1] is less than 0.25 µg/mL; in assay [2], 4 µg/mL (≈ 6 µM); in assay [3], less than 0.25 µg/mL; in assay [4] it was more than 32 µg/mL; in assay [5], 4 µg/mL (≈ 6 µM); in [6], less than 0.25 µg/mL. Moreover, the MIC in assay [7] is 16 µg/mL (≈ 24 µM); in assay [8], more than 32 µg/mL; in assay [9], 8 µg/mL (≈ 12 µM).
In the case of `N=C(N)NC(=N)SCc1ccc(SC2=C(C(=O)O)N3C(=O)[C@@H](NC(=O)Cc4ccccc4)[C@H]3SC2)c(I)c1` [Cmpd 60, (7R)-7-[(Phenylacetyl)amino]-3-(4-(N-amidino)isothiouroniummethyl-2-iodophenylthio)-3-cephem-4-carboxylate, inner salt], the MIC in [1] is less than 0.25 µg/mL; in assay [2], 1 µg/mL; in [3] it was less than 0.25 µg/mL; in assay [4] it was more than 32 µg/mL; in [5], 1 µg/mL; in [6], less than 0.25 µg/mL. The MIC was 4 to 8 µg/mL in assay [7], more than 32 µg/mL in [8] and 4 µg/mL in assay [9].
Take `N=C(NCCN1CCOCC1)SCc1ccc(SC2=C(C(=O)O)N3C(=O)[C@@H](NC(=O)Cc4ccccc4)[C@H]3SC2)c(I)c1` [Cmpd 61, (7R)-7-[(Phenylacetyl)amino]-3-(4-(N-morpholinoethyl)isothiouroniummethyl-2-iodophenylthio)-3-cephem-4-carboxylate, inner salt]: the MIC was 0.5 µg/mL in assay [1]; 4 µg/mL in assay [2]; less than 0.25 µg/mL in assay [3] (setting [10]); more than 32 µg/mL in assay [4]; 4 µg/mL in [5]; less than 0.25 µg/mL in assay [6] (setting [11]). Further, the minimal inhibitory concentration (MIC) in assay [7] was more than 32 µg/mL; in assay [8], more than 32 µg/mL; in assay [9] it was 16 µg/mL.
As to `CN(C)C(SCc1ccc(SC2=C(C(=O)[O-])N3C(=O)[C@@H](NC(=O)Cc4ccccc4)[C@H]3SC2)c(I)c1)=[N+](C)C` [Cmpd 62, (7R)-7-[(Phenylacetyl)amino]-3-(4-tetra-methylisothiouroniummethyl-2-iodophenylthio)-3-cephem-4-carboxylate, inner salt], the MIC in [1] is less than 0.25 µg/mL; in assay [2], 2 µg/mL; in assay [3], less than 0.25 µg/mL; in assay [4] it was more than 32 µg/mL; in [5], 4 µg/mL; in assay [6], less than 0.25 µg/mL. Besides, the MIC in assay [7] is 32 µg/mL; in assay [8], more than 32 µg/mL; in assay [9], 16 µg/mL.
As for `N=C(N)SCc1ccc(SC2=C(C(=O)O)N3C(=O)[C@@H](NC(=O)Cc4ccccc4)[C@H]3SC2)cc1` [Cmpd 63, (7R)-7-[(Phenylacetyl)amino]-3-(4-isothiouroniummethylphenylthio)-3-cephem-4-carboxylate, inner salt], the MIC in assay [1] was less than 0.25 µg/mL; in [2], 1 µg/mL; in assay [3], less than 0.25 µg/mL; in assay [4] it was 8 µg/mL; in assay [5], 1 µg/mL; in assay [6], less than 0.25 µg/mL. For the same compound, the MIC in [7] was 32 µg/mL; in [8], more than 32 µg/mL; in [9], 16 µg/mL.
For `N#CCC(=O)N[C@@H]1C(=O)N2C(C(=O)O)=C(Sc3ccc(CSC(=N)N)cc3I)CS[C@H]12` [Cmpd 66, (7R)-7-[(Cyanoacetyl)amino]-3-(4-isothiouroniummethyl-2-iodophenylthio)-3-cephem-4-carboxylate, inner salt], the MIC in assay [1] is less than 0.25 µg/mL; in assay [2] it was 4 µg/mL; in assay [3], less than 0.25 µg/mL; in [4] it was more than 32 µg/mL; in assay [5] it was 1 µg/mL; in assay [6] it was less than 0.25 µg/mL. Besides, the MIC is 8 µg/mL in assay [7], more than 32 µg/mL in assay [8] and 8 µg/mL in [9].
In the case of `C[n+]1cccc(SC2=C(C(=O)[O-])N3C(=O)[C@@H](NC(=O)Cc4ccccc4)[C@H]3SC2)c1-c1ccccc1` [Cmpd 82, (7R)-7-[(Phenylacetyl)amino]-3-(2-phenyl-N-methylpyridin-3-iumthio)-3-cephem-4-carboxylate], the MIC was less than 0.25 µg/mL in assay [1]; 1 µg/mL (≈ 1.93 µM) in assay [2]; less than 0.25 µg/mL in assay [3]; more than 32 µg/mL in assay [4]; 4 µg/mL (≈ 7.73 µM) in [5]; less than 0.25 µg/mL in assay [6]. The figures for the MIC in assay [7], in assay [8] and in [9] were 32 µg/mL (≈ 61.8 µM), more than 32 µg/mL and 16 µg/mL (≈ 30.9 µM), respectively.
